Experimental data from PMC8901636, “Preclinical studies of Flonoltinib Maleate, a novel JAK2/FLT3 inhibitor, in treatment of JAK2^V617F-induced myeloproliferative neoplasms” (Blood Cancer Journal, 2022).
Like-named read-outs stand apart in the source and are kept apart here.

Experiments:
Ba/F3-JAK2^V617F cells = assay: Ba/F3-JAK2^V617F disease model; settings: for inhibition of the spleen growth: 22 days, figure prints it with a minus sign over Spleen Weight (mg); for median survival: vehicle 25 days
MV-4-11 = assay: MTT assay for cell proliferation; type: cell-based; settings: Homo sapiens, MV4-11, 72 h, read-out: IC50(μM) ± SD, tumor cell proliferation
Protocol: (§3) For in vitro inhibition assays, cells were seeded in 96-well culture plates with a density of 15,000–20,000 cells/well after the cells reached 70–90% confluence. […] MTT (3-(4, 5-dimethylthiazol-2-yl)-2, 5-diphenyltetrazolium bromide) (Cat. No. 1334GR001; BioFroxx) assay was conducted in order to examine viability. The IC50 values were fitted using GraphPad Prism 7.0.

JAK1 = JAK1 (Homo sapiens, UniProt P23458); assay: In vitro kinase assay; settings: read-out: JAK1 Enzyme IC50
JAK1, sequence (P23458 whole entry): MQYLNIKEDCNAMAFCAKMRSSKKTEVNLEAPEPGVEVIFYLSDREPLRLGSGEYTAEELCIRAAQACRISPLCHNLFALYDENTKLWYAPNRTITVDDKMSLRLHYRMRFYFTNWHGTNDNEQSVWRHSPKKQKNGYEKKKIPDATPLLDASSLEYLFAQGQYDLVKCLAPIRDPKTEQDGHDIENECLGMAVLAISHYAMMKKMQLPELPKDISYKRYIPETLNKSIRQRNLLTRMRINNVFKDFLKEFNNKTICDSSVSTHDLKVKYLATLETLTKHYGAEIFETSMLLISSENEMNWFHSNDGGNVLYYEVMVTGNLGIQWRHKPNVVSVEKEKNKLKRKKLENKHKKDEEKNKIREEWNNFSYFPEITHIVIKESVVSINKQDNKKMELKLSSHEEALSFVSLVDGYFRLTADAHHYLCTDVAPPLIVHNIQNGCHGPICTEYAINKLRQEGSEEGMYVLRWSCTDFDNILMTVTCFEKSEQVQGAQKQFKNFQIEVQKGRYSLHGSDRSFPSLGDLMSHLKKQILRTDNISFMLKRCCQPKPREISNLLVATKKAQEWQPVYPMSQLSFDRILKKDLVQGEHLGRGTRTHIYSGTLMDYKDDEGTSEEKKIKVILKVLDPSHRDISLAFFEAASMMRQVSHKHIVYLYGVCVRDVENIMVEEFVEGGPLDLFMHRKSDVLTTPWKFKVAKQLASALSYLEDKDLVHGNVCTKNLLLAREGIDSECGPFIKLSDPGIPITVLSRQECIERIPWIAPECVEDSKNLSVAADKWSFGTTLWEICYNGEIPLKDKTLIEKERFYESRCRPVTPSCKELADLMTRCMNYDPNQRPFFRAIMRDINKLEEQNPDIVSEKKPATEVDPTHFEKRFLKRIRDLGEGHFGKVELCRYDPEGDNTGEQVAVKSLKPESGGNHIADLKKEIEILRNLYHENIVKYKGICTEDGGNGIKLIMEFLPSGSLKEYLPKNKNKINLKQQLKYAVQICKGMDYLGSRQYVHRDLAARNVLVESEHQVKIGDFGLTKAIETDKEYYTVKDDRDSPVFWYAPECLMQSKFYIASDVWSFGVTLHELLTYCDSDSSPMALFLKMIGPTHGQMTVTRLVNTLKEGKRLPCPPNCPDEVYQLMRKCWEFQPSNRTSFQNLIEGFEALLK

Ba/F3-EPOR-JAK2^V617F = assay: MTT assay for cell proliferation; type: cell-based, Murine; settings: Mus musculus
Protocol: as §3

FLT3 = FLT3 (Homo sapiens, UniProt P36888); assay: In vitro kinase assay
FLT3, sequence (P36888 27-993): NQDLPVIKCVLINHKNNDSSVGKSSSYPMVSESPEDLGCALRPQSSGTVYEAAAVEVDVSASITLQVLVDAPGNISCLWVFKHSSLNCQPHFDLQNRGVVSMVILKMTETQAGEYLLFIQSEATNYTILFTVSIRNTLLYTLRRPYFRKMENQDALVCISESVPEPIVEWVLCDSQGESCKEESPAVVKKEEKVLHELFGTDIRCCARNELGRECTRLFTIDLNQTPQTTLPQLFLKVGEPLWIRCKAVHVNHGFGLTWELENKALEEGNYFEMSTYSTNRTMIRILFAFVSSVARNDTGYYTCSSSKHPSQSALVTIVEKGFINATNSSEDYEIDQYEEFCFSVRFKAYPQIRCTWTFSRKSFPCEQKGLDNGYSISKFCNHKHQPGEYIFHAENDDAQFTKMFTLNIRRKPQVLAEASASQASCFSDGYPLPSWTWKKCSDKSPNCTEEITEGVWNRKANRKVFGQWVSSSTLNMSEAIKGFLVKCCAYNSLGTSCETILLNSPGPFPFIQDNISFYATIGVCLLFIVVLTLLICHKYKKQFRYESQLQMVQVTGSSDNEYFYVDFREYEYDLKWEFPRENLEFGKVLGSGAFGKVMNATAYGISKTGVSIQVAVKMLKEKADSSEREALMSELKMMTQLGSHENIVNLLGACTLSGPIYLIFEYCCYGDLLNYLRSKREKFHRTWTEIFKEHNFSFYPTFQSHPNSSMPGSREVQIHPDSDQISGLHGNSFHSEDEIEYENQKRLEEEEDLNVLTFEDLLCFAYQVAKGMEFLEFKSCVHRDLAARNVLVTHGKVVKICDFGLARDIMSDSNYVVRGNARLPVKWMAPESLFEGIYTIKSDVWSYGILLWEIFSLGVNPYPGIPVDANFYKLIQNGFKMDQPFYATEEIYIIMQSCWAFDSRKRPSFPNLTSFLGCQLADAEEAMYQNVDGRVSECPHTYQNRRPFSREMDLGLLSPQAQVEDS

[1] = system: Ba/F3-EPOR-JAK2^V617F cells; assay: Ba/F3-EPOR-JAK2^V617F malignancy mouse model; settings: for spleen suppression rate: 16 days; for median survival time: vehicle 19 days
HEL = assay: MTT assay for cell proliferation; type: cell-based; settings: Homo sapiens, 72 h, read-out: IC50(μM) ± SD, tumor cell proliferation
Protocol: as §3

CD34^+ cells = assay: CD34+ cells in peripheral blood of normal mice; type: in vivo; settings: normal BALB/c mice; 30 mg/kg p.o. twice a day; Day 0-21
Protocol: (§1) To further understand the effect of FM on normal mice and normal human CD34^+ cells, we conducted a further analysis on CD34^+ cells. For normal mice, we measured the proportion of CD34^+ in the peripheral blood of BALB/c mice on Day 0, and then mice were treated with FM 30 mg/kg p.o. twice a day. […] To investigate the effect of FM on normal human CD34^+ cells, we collected mononuclear cells of PB acquired from healthy donors. […] Therefore, in the future phase I clinical trials, we should examine the myelosuppressive effects of FM in patients with MPN.
(§2) (A) Normal BALB/c mice were treated with vehicle and FM 30mg/kg p.o. twice a day. FACS analysis of the percentage of CD34^+ cells on Day 0, 7, 14 and 21 (n = 7). (B) Mononuclear cells were isolated from the PB of healthy donors and CD34^+ cells were analyzed after incubated with FM after 48h.

JAK1/TYK2 pathway = assay: Cytokine-stimulated cell-based assay, IFN-α-induced p-STAT1; settings: western blotting
[2] = system: normal human CD34^+ cells; assay: Normal human CD34+ cells from PB mononuclear cells of healthy donors; type: cell-based; settings: 48 h
Protocol: as §1, §2

[3] = PK and tissue distribution after repeated oral administration in Ba/F3-EPOR-JAK2^V617F tumor-bearing mice; type: in vivo; settings: BALB/c nude, mouse, oral, 30 mg/kg, repeated
[4] = brain, read-out: FM concentration, Brain
[5] = heart, read-out: FM concentration, Heart
[6] = intestine, read-out: FM concentration, Intestine
[7] = kidney, read-out: FM concentration, Kidney
[8] = liver, read-out: FM concentration, Liver

In the case of `Cc1cnc(Nc2ccc(N3CCC(N(C)CCO)CC3)c(F)c2)nc1-c1cnn(C(C)C)c1` [FM, 2-((1-(2-fluoro-4-((4-(1-isopropyl-1H-pyrazol-4-yl)-5-methylpyrimidin-2-yl)amino)phenyl)piperidin-4-yl)(methyl)amino)ethan-1-ol], the “inhibition of the spleen growth” value (Ba/F3-JAK2^V617F cells; 15 mg/kg bid p.o.) is reported as 72.56%, the median survival (Ba/F3-JAK2^V617F cells; 15 mg/kg bid p.o.) is reported as 30 days and the “inhibition of the spleen growth” value (Ba/F3-JAK2^V617F cells; 30 mg/kg bid p.o.) is reported as 97.92%. For the same molecule, the median survival (Ba/F3-JAK2^V617F cells; 30 mg/kg bid p.o.) was 31 days, the “body weight during treatment” value (Ba/F3-JAK2^V617F cells; any dose) was “no obvious body weight decrease” and the IC50 (MV-4-11) was 0.01 ± 0.01 µM. For the same molecule, the IC50 (JAK1) was 690 nM, the IC50 (Ba/F3-EPOR-JAK2^V617F; 72 h, read-out: IC50(μM) ± SD, tumor cell proliferation) was 0.78 ± 0.21 µM and the IC50 (Ba/F3-EPOR-JAK2^V617F; as quoted in PK/PD text, read-out: IC50 value of Ba/F3-EPOR-JAK2^V617F cells in vitro) was 0.79 ± 0.01 µM. For the same molecule, the IC50 (FLT3) was 15 nM, the “spleen suppression rate” value ([1]; 15 mg/kg bid p.o.) was -35.67% and the median survival time ([1]; 15 mg/kg bid p.o.) was 22 days. The “spleen suppression rate” value ([1]; 30 mg/kg bid p.o.) was -79.79%, the median survival time ([1]; 30 mg/kg bid p.o.) was 25 days and the “spleen suppression rate” value ([1]; 45 mg/kg bid p.o.) was -101.08%. The median survival time ([1]; 45 mg/kg bid p.o.) was 25 days, the “visceral toxicity, tissues of treated mice” value ([1]; data not shown) was “did not cause obvious visceral toxicity” and the IC50 (HEL) was 0.26 ± 0.2 µM. The “CD34^+ cells in peripheral blood” value (CD34^+ cells) was “significantly inhibited”, the IC50 (JAK1/TYK2 pathway) was > 5000 nM and the “effect on normal human CD34^+ cells” value [2] was “general inhibitory effect”. For the same molecule, the concentration at 0 h [3, 4] was 6.3 ± 3.68 ng/g, the concentration at 0.5 h [3, 4] was 283 ± 93.8 ng/g and the concentration at 2 h [3, 4] was 369 ± 113 ng/g. The concentration at 4 h [3, 4] was 492 ± 754 ng/g, the concentration at 8 h [3, 4] was 47 ± 31.3 ng/g and the concentration at 12 h [3, 4] was 10.8 ± 4.65 ng/g. For the same molecule, the concentration at 0 h [3, 5] was 7.06 ± 1.49 ng/g, the concentration at 0.5 h [3, 5] was 1890 ± 756 ng/g and the concentration at 2 h [3, 5] was 1320 ± 674 ng/g. For the same molecule, the concentration at 4 h [3, 5] was 578 ± 356 ng/g, the concentration at 8 h [3, 5] was 357 ± 376 ng/g and the concentration at 12 h [3, 5] was 15.8 ± 11.3 ng/g. It also gave a concentration at 0 h [3, 6] of 21.4 ± 19.1 ng/g, a concentration at 0.5 h [3, 6] of 31200 ± 12600 ng/g and a concentration at 2 h [3, 6] of 4210 ± 1320 ng/g. It also gave a concentration at 4 h [3, 6] of 9610 ± 6020 ng/g, a concentration at 8 h [3, 6] of 1380 ± 1370 ng/g and a concentration at 12 h [3, 6] of 250 ± 337 ng/g. For the same molecule, the concentration at 0 h [3, 7] was 16.6 ± 1.41 ng/g, the concentration at 0.5 h [3, 7] was 11800 ± 3010 ng/g and the concentration at 2 h [3, 7] was 7560 ± 1990 ng/g. The concentration at 4 h [3, 7] was 4640 ± 1860 ng/g, the concentration at 8 h [3, 7] was 1790 ± 1450 ng/g and the concentration at 12 h [3, 7] was 174 ± 121 ng/g. For the same molecule, the concentration at 0 h [3, 8] was 12.9 ± 3.13 ng/g, the concentration at 0.5 h [3, 8] was 4360 ± 3900 ng/g and the concentration at 2 h [3, 8] was 6420 ± 1260 ng/g. The concentration at 4 h [3, 8] was 6660 ± 5810 ng/g.
